Test [1] concerns withdrawal reflex of the rat tail (tail flick). The test is described as follows: Low-intensity tail flick test (rat). It is filed as in vivo. The note with it: dose 10 mg/kg. The method, then: Method II. Low-Intensity Tail Flick Test (Rat)
In the low-intensity tail flick test, the determination of the antinociceptive effect of the compounds according to the invention towards an acute noxious thermal stimulus is carried out by measuring the withdrawal reflex of the rat tail (tail flick) in response to a radiant heat beam (analgesia meter; model 2011 of the company Rhema Labortechnik, Hofheim, Germany) according to the method described by D'Amour and Smith (J. Pharm. Exp. Ther. 72, 74 79 (1941). To this end, the rats were placed in a plexiglas restrainer, and a low-intensity radiant heat beam (48° C.) was focused onto the dorsal surface of the tail root. The stimulus intensity was adjusted to result in a mean pre-drug control withdrawal latency of about 7 s, thus also allowing a supraspinal modulation of the spinally mediated acute nociceptive reflex. […] Before administration of a compound according to the invention, the animals were pre-tested twice in the course of five minutes and the mean of these measurements was calculated as the pre-test mean. The antinociceptive effect was determined at 20, 40 and 60 min after peroral compound administration. The antinociceptive effect was calculated based on the increase in the tail withdrawal latency according to the following formula and is expressed as percentage of the maximum possible effect (MPE [%]): MPE=[(T1−T0)/(T2−T0)]*100 […]

The target of another test is T1, KCNQ2/3 channels (Homo sapiens, UniProt O43525+O43526).
T1 construct: expressed in transfected cells
The experiment in a line: Fluorescence assay using a voltage sensitive dye (fluorimetry). It is filed as cell-based. The note with it: CHO-K1 cells expressing KCNQ2/3 channels; for Emax: relative to retigabine = 100%, read-out: Fluorimetry % efficacy (retigabine = 100%). Here is the method: Pharmacological Experiments Method I. Fluorescence Assay Using a Voltage Sensitive Dye
Human CHO—K1 cells expressing KCNQ2/3 channels are cultivated adherently at 37° C., 5% CO2 and 95% humidity in cell culture bottles (e.g. 80 cm^2 TC flasks, Nunc) with DMEM-high glucose (Sigma Aldrich, D7777) including 10% FCS (PAN Biotech, e.g. 3302-P270521) or alternatively MEM Alpha Medium (lx, liquid, Invitrogen, #22571), 10% fetal calf serum (FCS) (Invitrogen, #10270-106, heat-inactivated) and the necessary selection antibiotics.
Before being sown out for the measurements, the cells are washed with a 1×DPBS buffer without Ca^2+/Mg^2+ (e.g. Invitrogen, #14190-094) and detached from the bottom of the culture vessel by means of Accutase (PAA Laboratories, #L11-007) (incubation with Accutase for 15 min at 37° C.). The cell count then present is determined using a CASY™ cell counter (TCC model, Scharfe System) in order subsequently to apply, depending on the density optimization for the individual cell line, 20,000-30,000 cells/well/100 μl of the described nutrient medium to 96-well measuring plates of the Corning™ CeIIBIND™ type (Flat Clear Bottom Black Polystyrene Microplates, #3340). Incubation is then carried out for one hour at room temperature, without gassing or adjusting the humidity, followed by incubation for 24 hours at 37° C., 5% CO2 and 95% humidity.
The voltage-sensitive fluorescent dye from the Membrane Potential Assay Kit (Red™ Bulk format part R8123 for FLIPR, MDS Analytical Technologies™) is prepared by dissolving the contents of a vessel Membrane Potential Assay Kit Red Component A in 200 ml of extracellular buffer (ES buffer, 120 mM NaCl, 1 mM KCl, 10 mM HEPES, 2 mM CaCl2, 2 mM MgCl2, 10 mM glucose; pH 7.4). After removal of the nutrient medium, the cells are washed with 200 μl of ES buffer, then covered with a layer of 100 μl of the dye solution prepared above and incubated for 45 min at room temperature with the exclusion of light.
The fluorescence measurements are carried out with a BMG Labtech FLUOstar™, BMG Labtech NOVOstar™ or BMG Labtech POLARstar™ instrument (525 nm excitation, 560 nm emission, Bottom Read mode). After incubation of the dye, 50 μl of the test substances in the desired concentrations, or 50 μl of ES buffer for control purposes, are introduced into separate cavities of the measuring plate and incubated for 30 min at room temperature while being shielded from light. The fluorescence intensity of the dye is then measured for 5 min and the fluorescence value F1 of each well is thus determined at a given, constant time. 15 μl of a […] KCl solution ([…]) are then added to each well. The change in fluorescence is subsequently measured until all the relevant measured values have been obtained (mainly 5-30 min). At a given time after KCl application, a fluorescence value F2 is determined, in this case at the time of the fluorescence peak.
For calculation, the fluorescence intensity F2 is corrected for the fluorescence intensity F1, and the activity (ΔF/F) of the target compound on the potassium channel is determined as follows:
In order to determine whether a substance has agonistic activity,
A substance has an agonistic activity on the potassium channel if
Calculations of EC50 and IC50 values are carried out with the aid of ‘Prism v4.0’ software (GraphPad Software™)

The text below walks through data of patent publication US9248122B2, “Heteroquinoline-3-carboxamides as KCNQ2/3 modulators” (GRÜNENTHAL GMBH, priority 2012, dated 2016).

Usually EC50 stands for the concentration at which the effect is half-maximal.

Consider `CCSc1nc2nc(C(F)(F)F)ccc2c(C)c1C(=O)NCc1ccc(F)cc1` [Example 7, 2-Ethylsulfanyl-N-[(4-fluorophenyl)-methyl]-4-methyl-7-(trifluoromethyl)-[1,8]naphthyridine-3-carboxylic acid amide], for which, in test [1], the “Low intensity tail flick, rat, peroral, ED50 or MPE (dose) [mg/kg]” value is 16 (10) %. Also, at KCNQ2/3 channels, a half-maximal effect (EC50) was put at 412 nM and the Emax was determined as 132%.
With `CCSc1nc2sccc2c(C)c1C(=O)NCc1cccc(F)c1` [Example 4, 6-Ethylsulfanyl-N-[(3-fluorophenyl)-methyl]-4-methyl-thieno[2,3-b]pyridine-5-carboxylic acid amide], at KCNQ2/3 channels, the Emax was 31%.
In the case of `CCSc1nc2cc(C(F)(F)F)cnc2c(C)c1C(=O)NCc1cccc(F)c1` [Example 1, 2-Ethylsulfanyl-N-[(3-fluorophenyl)-methyl]-4-methyl-7-(trifluoromethyl)-[1,5]naphthyridine-3-carboxylic acid amide], on KCNQ2/3 channels, the EC50 amounted to 84 nM and the Emax turned out to be 156%.
For the compound `CCSc1nc2ncccc2c(C)c1C(=O)NCc1ccc(F)cc1` [Example 16, 2-Ethylsulfanyl-N-[(4-fluorophenyl)-methyl]-4-methyl-[1,8]naphthyridine-3-carboxylic acid amide], the Emax on KCNQ2/3 channels stood at 10%.
In the case of `CCSc1nc2nc(C(F)(F)F)ccc2c(C)c1C(=O)NCc1cccc(F)c1` [Example 6, 2-Ethylsulfanyl-N-[(3-fluorophenyl)-methyl]-4-methyl-7-(trifluoromethyl)-[1,8]naphthyridine-3-carboxylic acid amide], at KCNQ2/3 channels, the concentration giving a half-maximal response (EC50) amounted to 683 nM and the Emax was found to be 152%.
As to `CCSc1nc2ccncc2c(C)c1C(=O)NCc1cccc(F)c1` [Example 13, 2-Ethylsulfanyl-N-[(3-fluorophenyl)-methyl]-4-methyl-[1,6]naphthyridine-3-carboxylic acid amide], the Emax on KCNQ2/3 channels is 32%.
As to `CCSc1nc2cccnc2c(C)c1C(=O)NCc1ccc(F)cc1` [Example 9, 2-Ethylsulfanyl-N-[(4-fluorophenyl)-methyl]-4-methyl-[1,5]naphthyridine-3-carboxylic acid amide], the Emax on KCNQ2/3 channels was 6%.
For the compound `CCOc1nc2cc(C(F)(F)F)sc2c(C)c1C(=O)NCc1cccc(F)c1` [Example 5, 5-Ethoxy-N-[(3-fluorophenyl)-methyl]-7-methyl-2-(trifluoromethyl)-thieno[3,2-b]pyridine-6-carboxylic acid amide], at KCNQ2/3 channels, the midpoint of the response, the EC50, lay at 51 nM and the Emax is 121%.
In the case of `CCSc1nc2cnccc2c(C)c1C(=O)NCc1ccc(F)cc1` [Example 15, 2-Ethylsulfanyl-N-[(4-fluorophenyl)-methyl]-4-methyl-[1,7]naphthyridine-3-carboxylic acid amide], on KCNQ2/3 channels, the Emax came out at 34%.
As to `CCSc1nc2cc(C(F)(F)F)cnc2c(C)c1C(=O)NCc1ccc(F)cc1` [Example 10, 2-Ethylsulfanyl-N-[(4-fluorophenyl)-methyl]-4-methyl-7-(trifluoromethyl)-[1,5]naphthyridine-3-carboxylic acid amide], at KCNQ2/3 channels, the EC50 was 101 nM and the Emax was 148%.
`CCSc1nc2cccnc2c(C)c1C(=O)NCc1cccc(F)c1` [Example 8, 2-Ethylsulfanyl-N-[(3-fluorophenyl)-methyl]-4-methyl-[1,5]naphthyridine-3-carboxylic acid amide]: the Emax on KCNQ2/3 channels was 9%.
Turning to `CCSc1nc2ccncc2c(C)c1C(=O)NCc1ccc(F)cc1` [Example 3, 2-Ethylsulfanyl-N-[(4-fluorophenyl)-methyl]-4-methyl-[1,6]naphthyridine-3-carboxylic acid amide], the Emax at KCNQ2/3 channels worked out at 34%.
As for `CCSc1nc2ncccc2c(C)c1C(=O)NCc1cccc(F)c1` [Example 17, 2-Ethylsulfanyl-N-[(3-fluorophenyl)-methyl]-4-methyl-[1,8]naphthyridine-3-carboxylic acid amide], at KCNQ2/3 channels, the Emax came out at 10%.
In the case of `CCSc1nc2cnccc2c(C)c1C(=O)NCc1cccc(F)c1` [Example 2, 2-Ethylsulfanyl-N-[(3-fluorophenyl)-methyl]-4-methyl-[1,7]naphthyridine-3-carboxylic acid amide], on KCNQ2/3 channels, it took 2190 nM to reach a half-maximal effect (EC50) and the Emax came out at 62%.
For `CCOc1nc2sc(C(F)(F)F)cc2c(C)c1C(=O)NCc1cccc(F)c1` [Example 18, 6-Ethoxy-N-[(3-fluorophenyl)-methyl]-4-methyl-2-(trifluoromethyl)-thieno[2,3-b]pyridine-5-carboxylic acid amide], at KCNQ2/3 channels, the midpoint of the response, the EC50, lay at 63 nM and the Emax was 112%.
The matching figures for `CCSc1nc2ccsc2c(C)c1C(=O)NCc1cccc(F)c1` [Example 14, 5-Ethylsulfanyl-N-[(3-fluorophenyl)-methyl]-7-methyl-thieno[3,2-b]pyridine-6-carboxylic acid amide]: 650 nM and -39%.
The matching figures for `CCSc1nc2cc(C(F)(F)F)ncc2c(C)c1C(=O)NCc1cccc(F)c1` [Example 11, 2-Ethylsulfanyl-N-[(3-fluorophenyl)-methyl]-4-methyl-7-(trifluoromethyl)-[1,6]naphthyridine-3-carboxylic acid amide]: 201 nM and 101%.
The matching figures for `CCSc1nc2cc(C(F)(F)F)ncc2c(C)c1C(=O)NCc1ccc(F)cc1` [Example 12, 2-Ethylsulfanyl-N-[(4-fluorophenyl)-methyl]-4-methyl-7-(trifluoromethyl)-[1,6]naphthyridine-3-carboxylic acid amide]: 301 nM and 97%.
